Assay results as given in patent US20020051978A1, “Methods and compositions for the identification, assessment, prevention and therapy of human cancers” (priority 2000, published 2002).
“And” between values parts separate entries of the source, which are not always exact repeats. Identical values can stand only once. Like-named read-outs stand apart in the source and are kept apart here.

Columns and labels:
tumor = settings: animal models; cited from earlier work
[1] = tested on: 60 cancer cell lines (NCI 60 cancer cell line series); experiment: NCI-DTP in vitro cancer screen, sulforhodamine B (SRB) growth inhibition, 48 hour exposure; assay type: cell-based, human
Method in brief: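 Sixty NCI-DTP cancer lines plated at line-specific densities, dosed on day 1 in duplicate with 5 concentrations at ten-fold intervals. After 48 h exposure, cell mass read by SRB staining; GI50 (50% growth inhibition) taken from dose-response curves and expressed as -log GI50.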

[2] = tested on: 60 cancer cell lines (NCI 60 cancer cell line series); settings: cited from earlier work

CC(=O)O[C@@]12CO[C@@H]1C[C@H](O)[C@@]1(C)C(=O)[C@H](O)C3=C(C)[C@@H](OC(=O)[C@H](O)[C@@H](NC(=O)OC(C)(C)C)c4ccccc4)C[C@@](O)([C@@H](OC(=O)c4ccccc4)[C@H]21)C3(C)C [Taxotere, docetaxel]
anti-tumor activity (tumor): good anti-tumor activity

Bleomycin
classification of cell line as Low(1), Medium(2) or High(3) sensitivity to compound ([1]; Breast MCF7(I) (CL5001)): 2 | classification of cell line as Low(1), Medium(2) or High(3) sensitivity to compound ([1]; Breast MCF7/ADRr (CL5002)): 2 | classification of cell line as Low(1), Medium(2) or High(3) sensitivity to compound ([1]; Breast MDA-MB-231 CL5005): 1 | classification of cell line as Low(1), Medium(2) or High(3) sensitivity to compound ([1]; Breast MDA-MB-435 (CL5011)): 1 | classification of cell line as Low(1), Medium(2) or High(3) sensitivity to compound ([1]; Breast MDA-N CL5012): 1 | classification of cell line as Low(1), Medium(2) or High(3) sensitivity to compound ([1]; Breast T-47D (CL5014)): 2 | classification of cell line as Low(1), Medium(2) or High(3) sensitivity to compound ([1]; CNS SF-268 CL12014): 2 | classification of cell line as Low(1), Medium(2) or High(3) sensitivity to compound ([1]; CNS SF-295 CL12015): 3 | classification of cell line as Low(1), Medium(2) or High(3) sensitivity to compound ([1]; CNS SF-539 CL12016): 3 | classification of cell line as Low(1), Medium(2) or High(3) sensitivity to compound ([1]; CNS SNB-19 (CL12002)): 2 | classification of cell line as Low(1), Medium(2) or High(3) sensitivity to compound ([1]; CNS SNB-75(I) CL12005): 2 | classification of cell line as Low(1), Medium(2) or High(3) sensitivity to compound ([1]; CNS U251(I) CL12009): 2 | classification of cell line as Low(1), Medium(2) or High(3) sensitivity to compound ([1]; Colon COLO-250 CL4010): 2 | classification of cell line as Low(1), Medium(2) or High(3) sensitivity to compound ([1]; Colon HCT-15 CL4015): 2 | classification of cell line as Low(1), Medium(2) or High(3) sensitivity to compound ([1]; Colon HCT-116 (CL4003)): 2 | classification of cell line as Low(1), Medium(2) or High(3) sensitivity to compound ([1]; Colon HT29(I) CL4001): 1 | classification of cell line as Low(1), Medium(2) or High(3) sensitivity to compound ([1]; Colon KM12 (CL4017)): 1 | classification of cell line as Low(1), Medium(2) or High(3) sensitivity to compound ([1]; Colon SW-620 (CL4009)): 2 | classification of cell line as Low(1), Medium(2) or High(3) sensitivity to compound ([1]; Leukemia CCRF-CEM(I) (CL7003)): 2 | classification of cell line as Low(1), Medium(2) or High(3) sensitivity to compound ([1]; Leukemia HL-60(I) (CL7008)): 2 | classification of cell line as Low(1), Medium(2) or High(3) sensitivity to compound ([1]; Leukemia K562(I) CL7005): 2 | classification of cell line as Low(1), Medium(2) or High(3) sensitivity to compound ([1]; Leukemia MOLT-4 (CL7006)): 2 | classification of cell line as Low(1), Medium(2) or High(3) sensitivity to compound ([1]; Leukemia SR CL7019): 3 | classification of cell line as Low(1), Medium(2) or High(3) sensitivity to compound ([1]; Melanoma LOX IMVI CL10001): 3 | classification of cell line as Low(1), Medium(2) or High(3) sensitivity to compound ([1]; Melanoma M14 (CL10014)): 2 | classification of cell line as Low(1), Medium(2) or High(3) sensitivity to compound ([1]; Melanoma MALME-3M CL10002): 2 | sensitivity class NSCLC NCI-H23(I) CL1001 ([1]; cell line NSCLC NCI-H23(I), CL1001): 2 | sensitivity class NSCLC NCI-H332M CL1017 ([1]; cell line NSCLC NCI-H332M, CL1017): 1 | sensitivity class NSCLC NCI-H522 CL1003 ([1]; cell line NSCLC NCI-H522, CL1003): 2 | sensitivity class Ovarian IGROV1 CL6010 ([1]; cell line Ovarian IGROV1, CL6010): 2 | sensitivity class Ovarian OVCAR-3 CL6001 ([1]; cell line Ovarian OVCAR-3, CL6001): 2 | sensitivity class Ovarian OVCAR-4 CL6002 ([1]; cell line Ovarian OVCAR-4, CL6002): 2 | sensitivity class Ovarian OVCAR-5 CL6003 ([1]; cell line Ovarian OVCAR-5, CL6003): 2 | sensitivity class Ovarian OVCAR-8 CL6005 ([1]; cell line Ovarian OVCAR-8, CL6005): 2 | sensitivity class Ovarian SK-OV-3 CL6011 ([1]; cell line Ovarian SK-OV-3, CL6011): 2 | sensitivity class Prostate DU-145 CL11003 ([1]; cell line Prostate DU-145, CL11003): 2 | sensitivity class Prostate PC-3(I) CL11001 ([1]; cell line Prostate PC-3(I), CL11001): 2 | sensitivity class Renal 786-O CL9018 ([1]; cell line Renal 786-O, CL9018): 2 | sensitivity class Renal A498 CL9013 ([1]; cell line Renal A498, CL9013): 2 | sensitivity class Renal ACHN CL9023 ([1]; cell line Renal ACHN, CL9023): 3 | sensitivity class Renal SN12C CL9008 ([1]; cell line Renal SN12C, CL9008): 2 | sensitivity class Renal TK10 CL9024 ([1]; cell line Renal TK10, CL9024): 1 | 1 # of Low ([1]; number of the 60 cell lines classified Low (1) sensitivity): 12 | -Log (GI50) ([2]; Breast BT-549 (CL5013)): 5.0 and 5.1 | -Log (GI50) ([2]; Breast MCF7(I) (CL5001)): 5.7 and 5.5 | -Log (GI50) ([2]; Breast MCF7/ADRr (CL5002)): 6.1 and 6.0 | -Log (GI50) ([2]; Breast MDA-MB-435 (CL5011)): 4.7 and 4.6 | -Log (GI50) ([2]; Breast MDA-N CL5012): 4.8 and 4.6 | -Log (GI50) ([2]; Breast T-47D (CL5014)): 5.3 and 5.2 | -Log (GI50) ([2]; CNS SF-295 CL12015): 7.0 and 7.2 | -Log (GI50) ([2]; CNS SF-539 CL12016): 7.7 | -Log (GI50) ([2]; CNS SNB-19 (CL12002)): 5.4 and 5.5 | -Log (GI50) ([2]; Colon COLO-250 CL4010): 5.2 and 5.3 | -Log (GI50) ([2]; Colon HCC-2998 (CL4002)): 5.0 and 4.7 | -Log (GI50) ([2]; Colon HCT-116 (CL4003)): 6.4 and 6.2 | -Log (GI50) ([2]; Colon HT29(I) CL4001): 4.9 and 4.8 | -Log (GI50) ([2]; Colon KM12 (CL4017)): 4.9 and 4.8 | -Log (GI50) ([2]; Colon SW-620 (CL4009)): 5.1 and 5.0 | -Log (GI50) ([2]; Leukemia HL-60(I) (CL7008)): 5.2 and 5.3 | -Log (GI50) ([2]; Leukemia MOLT-4 (CL7006)): 5.9 and 6.2 | -Log (GI50) ([2]; Leukemia RPMI-8226(I) (CL7010)): 4.8 and 4.9 | -Log (GI50) ([2]; Melanoma LOX IMVI CL10001): 6.8 | -Log (GI50) ([2]; Melanoma M14 (CL10014)): 5.8 and 5.5 | -Log (GI50) ([2]; NSCLC NCI-H23(I) CL1001): 6.2 and 6.3 | -Log (GI50) ([2]; NSCLC NCI-H332M CL1017): 4.8 and 4.5 | -Log (GI50) ([2]; Ovarian OVCAR-3 CL6001): 5.3 | -Log (GI50) ([2]; Ovarian OVCAR-8 CL6005): 5.5 and 5.8 | -Log (GI50) ([2]; Ovarian SK-OV-3 CL6011): 5.2 and 5.4 | -Log (GI50) ([2]; Prostate DU-145 CL11003): 5.4 and 5.5 | -Log (GI50) ([2]; Prostate PC-3(I) CL11001): 5.1 and 5.3 | -Log (GI50) ([2]; Renal ACHN CL9023): 8.1 and 7.9 | -Log (GI50) ([2]; Renal RXF-393 CL9016): 6.7 and 6.6 | -Log (GI50) ([2]; Renal SN12C CL9008): 6.0 and 5.9 | -Log (GI50) ([2]; Renal TK10 CL9024): 5.0 and 4.7
